{"source": "patent US8343543B2", "about": "“Lipase inhibiting composition” (Hoffmann-La Roche Inc., priority 2001, dated 2013)", "assay": "Orlistat transfer into oil in vitro", "assay_type": "physicochemical", "conditions": "after 10 min", "experimental": "Orlistat (4 mg) suspensions stabilized by sucroseesters (2 mg) were transferred into 5 ml of a 10% oil in water emulsion (pH value 4.5; oil components: olive oil and cream respectively). The dispersion underwent end-over end mixing for a desired period of time. The oil phase was separated by cold centrifugation and the orlistat content in the oil phase was determined by HPLC. For comparison, an adequate experiment was also performed with a suspension of XENICAL® brand of orlistat-containing pharmaceutical composition. L-1695, P-1670, S-1670, O-1570 are commercial sucroseesters (Sucroselaurate, Sucrosepalmitate, Sucrosestearate, Sucroseoleate respectively) from Mitsubishi-Kagaku Foods, Japan."}
{"smiles": "CCCCCCCCCCC[C@@H](C[C@@H]1OC(=O)[C@H]1CCCCCC)OC(=O)[C@H](CC(C)C)NC=O", "note": "[orlistat]", "values": [{"measurement": "transfer into olive oil, times more efficient than transfer into cream", "result": 7}]}
